The source of these data is patent US11319324B2, “Pyrazolo-pyrrolo-pyrimidine-dione derivatives as P2X3 inhibitors” (Bayer Aktiengesellschaft, priority 2017, dated 2022).

Holding throughout (assay type): cell-based
Experiment [1] has as its target T1, human P2X3 receptor (Homo sapiens, UniProt P56373).
T1 sequence (P56373 1-397): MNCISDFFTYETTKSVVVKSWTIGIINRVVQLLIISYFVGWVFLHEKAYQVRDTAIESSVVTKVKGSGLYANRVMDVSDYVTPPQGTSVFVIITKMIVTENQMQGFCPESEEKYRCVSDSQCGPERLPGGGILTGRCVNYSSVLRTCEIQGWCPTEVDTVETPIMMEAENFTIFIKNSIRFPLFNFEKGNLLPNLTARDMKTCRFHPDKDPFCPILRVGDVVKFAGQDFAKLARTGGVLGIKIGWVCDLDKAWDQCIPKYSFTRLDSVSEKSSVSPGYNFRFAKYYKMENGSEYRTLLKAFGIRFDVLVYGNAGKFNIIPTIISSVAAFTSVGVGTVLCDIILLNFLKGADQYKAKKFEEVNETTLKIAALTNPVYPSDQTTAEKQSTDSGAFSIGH
The experiment in a line: Intracellular calcium measurement to assess antagonist activity at human P2X3 receptors (hP2X3 CHO), photina luminescence. Further details: expressed in transfected cells; host or cells: Chinese hamster ovary (CHO) cells. The following applies: column 2), CHO cells, agonist α,β-methylene-ATP at EC50. An outline of the steps:
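Antagonism read as lowered photina luminescence after agonist stimulation in recombinant hP2X3/photina CHO cells. Cells seeded one day earlier (30 °C) and reconstituted with 5 μg/ml coelenterazine in 2 mM Ca-tyrode buffer for 3 h at 37 °C before measurement.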
(In general: Calcium assays in cells follow changes in intracellular calcium, usually with a dye or a luminescent sensor.)

Experiment [2] addresses T1, human P2X3 receptor. Briefly: Intracellular calcium measurement to assess antagonist activity at human P2X3 receptors (hP2X3 FLIPR). More on the design: expressed in transfected cells; host or cells: human astrocytoma 1321N1 (1312N1 [sic]). The following applies: head prints (1321N1); read-out: 1) hP2X3 IC50 [nM] (1321N1). The method, then:
1) Intracellular Calcium Measurement to Assess Antagonist Activity at Human P2X3 Receptors (hP2X3 FLIPR)
A fluorescent imaging plate reader (FLEX/FLIPR station; Molecular Devices) was used to monitor intracellular calcium levels using the calcium-chelating dye Fluo-4 (Molecular Probes). The excitation and emission wavelengths used to monitor fluorescence were 470-495 nm and 515-575 nm, respectively. The human astrocytoma […] cells expressing purinergic receptors P2X3 (human) were plated at a density of 15,000 cells/well in collagen—coated 384-well plates approximately 20 hours before beginning the assay. […] The dye supernatant was removed and replaced with 45 μl probenecid buffer (Hank's balanced salt solution, 20 mM HEPES, 0.5 mM CaCl2, 0.5 mM MgCl2, 0.1% BSA, 5 mM probenecid, 10 mM D-glucose monohydrate, pH=7.4). The test compounds were added in a volume of 5 μl and allowed to incubate for 30 min at 37° C. The final assay DMSO concentration is 1%. […] The fluorescence was measured for an interval of 90 sec at 2 sec intervals and analyzed based on the increase in peak relative fluorescence units (RFU) compared to the basal fluorescence. Peak fluorescence was used to determine the response to agonist obtained at each concentration of test compound by the following equation: Response=100*(RFU(test compound)−RFU(control))/(RFU(DMSO)−RFU(control))
The Examples were tested in triplicates per plate and mean values were plotted in Excel XLFit to determine IC50 values at the human P2X3 and human P2X2/3 receptors, percentage of maximal inhibition and the Hill coefficients.

The target in experiment [3] is T1, human P2X3 receptor. Briefly: Intracellular calcium measurement, antagonist activity at human P2X3 receptors (hP2X3 1321N1), Fluo8. The following applies: column 3); 1321N1 cells, human P2X3, Fluo8, agonist ATP at EC50. More on the design: expressed in transfected cells; host or cells: human astrocytoma 1321N1 (1312N1 [sic]). Summed up: (§1)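 Antagonism was assessed by decrease of the Fluo8 calcium signal after ATP challenge, with ATP dosed at the EC50 of whichever receptor was tested. Stable 1321N1 astrocytoma lines expressed either human P2X3 or both P2X2 and P2X3, and were dye-loaded 60 min before a 10 min compound incubation.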

The target in the next experiment is T2, human P2X2/3 receptors (Homo sapiens, UniProt P56373+Q9UBL9).
T2 construct: expressed in transfected cells; host or cells: human astrocytoma 1321N1 (1312N1 [sic])
T2 sequence (P56373 1-397): T1 sequence (P56373 1-397)
T2 sequence (Q9UBL9 1-471): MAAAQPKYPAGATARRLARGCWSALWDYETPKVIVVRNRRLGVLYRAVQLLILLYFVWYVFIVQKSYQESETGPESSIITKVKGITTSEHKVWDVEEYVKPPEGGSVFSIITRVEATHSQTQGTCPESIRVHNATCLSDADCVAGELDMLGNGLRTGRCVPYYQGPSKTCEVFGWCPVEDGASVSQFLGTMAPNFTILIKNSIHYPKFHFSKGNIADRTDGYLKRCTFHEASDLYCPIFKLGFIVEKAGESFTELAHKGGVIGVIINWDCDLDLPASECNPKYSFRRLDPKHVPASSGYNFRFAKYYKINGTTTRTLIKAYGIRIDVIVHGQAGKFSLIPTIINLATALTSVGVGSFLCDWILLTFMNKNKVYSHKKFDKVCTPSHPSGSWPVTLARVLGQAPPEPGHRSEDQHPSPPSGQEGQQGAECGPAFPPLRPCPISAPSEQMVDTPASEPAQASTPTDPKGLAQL
Briefly: Intracellular calcium measurement, antagonist activity at human P2X2/3 receptors (hP2X23 1321N1), Fluo8. As to conditions: for IC50: column 4); 1321N1 cells, human P2X2/3, Fluo8, agonist ATP at EC50; read-out: 4) hP2X2/3 IC50 [nM] (1321N1); for hP2X23/hP2X3* Selectivity (1321N1): ratio of column 4) hP2X2/3 to column 3) hP2X3, 1321N1. Summed up:
as §1

For the compound `COCC(C)N1Cc2c(n(CC(=O)Nc3ccc(F)cn3)c3cc(C(=O)N(C)C)nn3c2=O)C1=O` (racemic) [Example 140, 4-{2-[(5-fluoropyridin-2-yl)amino]-2-oxoethyl}-6-[(±)-1-methoxypropan-2-yl]-N,N-dimethyl-5,8-dioxo-5,6,7,8-tetrahydro-4H-pyrazolo[1,5-a]pyrrolo[3,4-d]pyrimidine-2-carboxamide], the IC50 on human P2X3 receptor [1] was 55 nM; on human P2X3 receptor [2], 57 nM; at human P2X3 receptor [3], 115 nM; at human P2X2/3 receptors, above 20900 nM. For the same compound, on human P2X2/3 receptors, the “hP2X23/hP2X3* Selectivity (1321N1)” value is above 183.

For the compound `COCC(C)N1Cc2c(n(CC(=O)Nc3ccc(F)cn3)c3cc(CO)nn3c2=O)C1=O` (racemic) [Example 141, N-(5-fluoropyridin-2-yl)-2-{2-(hydroxymethyl)-6-[(±)-1-methoxypropan-2-yl]-5,8-dioxo-5,6,7,8-tetrahydro-4H-pyrazolo[1,5-a]pyrrolo[3,4-d]pyrimidin-4-yl}acetamide], the IC50 at human P2X3 receptor [2] is 125 nM.

Take `CC(C)N1Cc2c(n(CC(=O)Nc3ccc(F)cn3)c3cc(C(C)(C)C)nn3c2=O)C1=O` [Example 1, 2-[2-tert-butyl-5,8-dioxo-6-(propan-2-yl)-5,6,7,8-tetrahydro-4H-pyrazolo[1,5-a]pyrrolo[3,4-d]pyrimidin-4-yl]-N-(5-fluoropyridin-2-yl)acetamide]: the IC50 was found to be 35 nM at human P2X3 receptor [1], 22 nM on human P2X3 receptor [2], 35 nM at human P2X3 receptor [3] and 4900 nM at human P2X2/3 receptors. Also, on human P2X2/3 receptors, the “hP2X23/hP2X3* Selectivity (1321N1)” value was found to be 138.

Take `CC(C)N1Cc2c(n(CC(=O)Nc3ccccn3)c3cc(C(C)(C)C)nn3c2=O)C1=O` [Example 2]: the IC50 was 135 nM at human P2X3 receptor [1], 219 nM at human P2X3 receptor [2], 185 nM at human P2X3 receptor [3] and above 22000 nM on human P2X2/3 receptors. At human P2X2/3 receptors, the “hP2X23/hP2X3* Selectivity (1321N1)” value is above 119.

For the compound `CC(C)N1Cc2c(n(CC(=O)Nc3ccc(Cl)cn3)c3cc(C(C)(C)C)nn3c2=O)C1=O` [Example 3], the IC50 is 147 nM at human P2X3 receptor [1], 32 nM at human P2X3 receptor [2], 37 nM at human P2X3 receptor [3] and 2850 nM at human P2X2/3 receptors. In addition, the “hP2X23/hP2X3* Selectivity (1321N1)” value at human P2X2/3 receptors is recorded as 78.

For `Cc1ccc(NC(=O)Cn2c3c(c(=O)n4nc(C(C)(C)C)cc24)CN(C(C)C)C3=O)nc1` [Example 4], the IC50 on human P2X3 receptor [1] was 345 nM; on human P2X3 receptor [2], 147 nM; on human P2X3 receptor [3], 177 nM; on human P2X2/3 receptors, 9600 nM. Moreover, the “hP2X23/hP2X3* Selectivity (1321N1)” value at human P2X2/3 receptors is 54.

`CC(C)c1cc2n(CC(=O)Nc3ccc(F)cn3)c3c(c(=O)n2n1)CN(C(C)C)C3=O` [Example 7]: the IC50 on human P2X3 receptor [1] amounted to 71 nM; at human P2X3 receptor [2] it was 28 nM; at human P2X3 receptor [3], 48 nM; on human P2X2/3 receptors, 8000 nM. The “hP2X23/hP2X3* Selectivity (1321N1)” value on human P2X2/3 receptors worked out at 167.

Turning to `CC(C)c1cc2n(CC(=O)Nc3ccc(Cl)cn3)c3c(c(=O)n2n1)CN(C(C)C)C3=O` [Example 8], the IC50 at human P2X3 receptor [1] is 51 nM; at human P2X3 receptor [2], 50 nM; on human P2X3 receptor [3] it was 48 nM; at human P2X2/3 receptors, 3650 nM. At human P2X2/3 receptors, the “hP2X23/hP2X3* Selectivity (1321N1)” value came out at 76.

With `Cc1ccc(NC(=O)Cn2c3c(c(=O)n4nc(C(C)C)cc24)CN(C(C)C)C3=O)nc1` [Example 9], the IC50 at human P2X3 receptor [1] was 220 nM; on human P2X3 receptor [2], 107 nM; on human P2X3 receptor [3], 263 nM; on human P2X2/3 receptors, above 19900 nM. The “hP2X23/hP2X3* Selectivity (1321N1)” value at human P2X2/3 receptors is above 76.

For `CC(C)[C@H](C)N1Cc2c(n(CC(=O)Nc3ccc(F)cn3)c3cc(C(C)(C)C)nn3c2=O)C1=O` [Example 10], the IC50 on human P2X3 receptor [1] is 38 nM; on human P2X3 receptor [2], 24 nM; at human P2X3 receptor [3] it was 317 nM; at human P2X2/3 receptors, above 32000 nM. At human P2X2/3 receptors, the “hP2X23/hP2X3* Selectivity (1321N1)” value is above 101.

Take `CC(C)(C)c1cc2n(CC(=O)Nc3ccc(F)cn3)c3c(c(=O)n2n1)CN(CCOCc1ccccc1)C3=O` [Example 34, 2-{6-[2-(Benzyloxy)ethyl]-2-tert-butyl-5,8-dioxo-5,6,7,8-tetrahydro-4H-pyrazolo[1,5-a]pyrrolo[3,4-d]pyrimidin-4-yl}-N-(5-fluoropyridin-2-yl)acetamide]: the IC50 on human P2X3 receptor [2] came out at 4 nM.

As to `Cc1cc2n(CC(=O)Nc3ccc(Cl)cn3)c3c(c(=O)n2n1)CN(C(C)C)C3=O` [Example 42], at human P2X3 receptor [2], the IC50 worked out at 35 nM.

Regarding `Cc1ccc(NC(=O)Cn2c3c(c(=O)n4nc(C(C)(C)C)cc24)CN(C2COC2)C3=O)nc1` [Example 47], the IC50 at human P2X3 receptor [1] came to 1100 nM; on human P2X3 receptor [2], 1220 nM.

Turning to `CC(C)N1Cc2c(n(CC(=O)Nc3ccc(F)cn3)c3cc(NC(=O)COCc4ccccc4)nn3c2=O)C1=O` [Example 287, 2-(benzyloxy)-N-[4-{2-[(5-fluoropyridin-2-yl)amino]-2-oxoethyl}-5,8-dioxo-6-(propan-2-yl)-5,6,7,8-tetrahydro-4H-pyrazolo[1,5-a]pyrrolo[3,4-d]pyrimidin-2-yl]acetamide], the IC50 was 32 nM at human P2X3 receptor [1], 48 nM at human P2X3 receptor [3] and 1800 nM on human P2X2/3 receptors. Also, the “hP2X23/hP2X3* Selectivity (1321N1)” value on human P2X2/3 receptors came to 38.

In the case of `CC(C)N1Cc2c(n(CC(=O)Nc3ccc(F)cn3)c3cc(NC(=O)CO)nn3c2=O)C1=O` [Example 289, N-[4-{2-[(5-fluoropyridin-2-yl)amino]-2-oxoethyl}-5,8-dioxo-6-(propan-2-yl)-5,6,7,8-tetrahydro-4H-pyrazolo[1,5-a]pyrrolo[3,4-d]pyrimidin-2-yl]-2-hydroxyacetamide], the IC50 was 245 nM at human P2X3 receptor [1], 587 nM at human P2X3 receptor [3] and above 32000 nM on human P2X2/3 receptors. In addition, on human P2X2/3 receptors, the “hP2X23/hP2X3* Selectivity (1321N1)” value is reported as above 55.

On to `CC(C)NC(=O)Nc1cc2n(CC(=O)Nc3ccc(F)cn3)c3c(c(=O)n2n1)CN(C(C)C)C3=O` [Example 290, 2-[5,8-dioxo-6-(propan-2-yl)-2-{[(propan-2-yl)carbamoyl]amino}-5,6,7,8-tetrahydro-4H-pyrazolo[1,5-a]pyrrolo[3,4-d]pyrimidin-4-yl]-N-(5-fluoropyridin-2-yl)acetamide], for which the results for the IC50 on human P2X3 receptor [1], at human P2X3 receptor [3] and on human P2X2/3 receptors were 115 nM, 105 nM and 4650 nM, respectively. The “hP2X23/hP2X3* Selectivity (1321N1)” value on human P2X2/3 receptors came to 44.

For `CCc1cc2n(CC(=O)Nc3ccc(F)cn3)c3c(c(=O)n2n1)CN(CC(=O)NC(C)C)C3=O` [Example 292], the results for the IC50 at human P2X3 receptor [1], at human P2X3 receptor [3] and at human P2X2/3 receptors were 112 nM, 120 nM and above 32000 nM, respectively. For the same compound, the “hP2X23/hP2X3* Selectivity (1321N1)” value at human P2X2/3 receptors was above 267.
